Assay results from PMC6204372, “An RORγt Oral Inhibitor Modulates IL-17 Responses in Peripheral Blood and Intestinal Mucosa of Crohn's Disease Patients” (Frontiers in Immunology, 2018).

Target: T1, RORγ (RORγt) ligand-binding domain (Homo sapiens, UniProt P51449)
T1 construct: gene RORC
T1 sequence (P51449 265-507 limits assumed): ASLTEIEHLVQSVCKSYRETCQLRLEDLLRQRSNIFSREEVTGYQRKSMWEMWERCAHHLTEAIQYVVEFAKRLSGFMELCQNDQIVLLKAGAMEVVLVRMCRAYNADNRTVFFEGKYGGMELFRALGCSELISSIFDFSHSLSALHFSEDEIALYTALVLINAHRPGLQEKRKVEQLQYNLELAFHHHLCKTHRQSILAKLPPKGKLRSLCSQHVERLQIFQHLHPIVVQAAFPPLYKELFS
Assay: Kd for human RORγ LBD (binding method not stated); also RORγ LBD reporter assay IC50 […]

Substance: BI119
- Kd: 65 nM
